Where no end group is shown, it is not given here. [ ]: non-standard residue; d: D form. Cit = NC(=O)NCCC[C@H](N)C(=O)O; Nle = CCCC[C@H](N)C(=O)O
Assays:
Assay in all cases: REVEAL binding assay
Settings in all cases: score as percentage of the signal generated by the positive control peptide
HLA-B40 = system: HLA-B40
Method in brief: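 Read-out: presence or absence of natively folded MHC–peptide complex. Values expressed as % of positive-control epitope signal per allele, plus putative pass/fail; weaker-binding intermediate control included.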

HLA-A2 = HLA-A2 (Homo sapiens, UniProt P04439, D140Y/D185E/D98H/E176V/E277Q/G131W/G231S/I119V/I121R/I166T/I218V/N151K/N90K/P208A/P217A/Q86G/Q94H/R138H/R169H)
Procedure: (§1) Binding properties to HLA for the ninemers listed in table 6 were tested for the following HLA-classes:
(§2) HLA-A1, HLA-A2, HLA-A3, HLA-A11, HLA-A24, HLA-A29, HLA-B7, HLA-B8, HLA-B14, HLA-B15, HLA-B27, HLA-B35, HLA-B40.
(§3) The peptides were synthesized as a Prospector PEPscreen®: Custom Peptide Library. […] Quality control by MALDI-TOF Mass Spectrometry was carried out on 100% of samples.
(§4) The REVEAL™ binding assay determined the ability of each candidate peptide to bind to one or more MHC class I alleles and stabilizing the MHC-peptide complex. By comparing the binding to that of high and intermediate affinity T cell epitopes, the most likely immunogenic peptides in a protein sequence can be identified. Detection is based on the presence or absence of the native conformation of the MHC-peptide complex. Each peptide is given a score relative to the positive control peptide, which is a known T cell epitope.

HLA-B27 = HLA-B27 (Homo sapiens, UniProt P01889, D138H/D201E/E176V/E204Q/G107R/H137Y/K202T/N104T/N87E/Q56L/Q94K/R106L/R155S/R180L/S101D/S121N/S48T/Y140D/Y33H/Y91C)
Procedure: as §1, §2, §3, §4

HLA-A3 = HLA-A3 (Homo sapiens, UniProt P04439)
Procedure: as §1, §2, §3, §4

HLA-A11 = HLA-A11 (Homo sapiens, UniProt P04439, A114D/F33Y/S129P)
Procedure: as §1, §2, §3, §4

HLA-B7 = HLA-B7 (Homo sapiens, UniProt P01889)
Procedure: as §1, §2, §3, §4

HLA-A24 = system: HLA-A24
HLA-A1 = system: HLA-A1
Text: (§5) The REVEAL™ binding assay determined the ability of each candidate peptide to bind to one or more MHC class I alleles and stabilizing the MHC-peptide complex. […] Detection is based on the presence or absence of the native conformation of the MHC-peptide complex. Each peptide is given a score relative to the positive control peptide, which is a known T cell epitope.

HLA-B35 = system: HLA-B35
HLA-B14 = system: HLA-B14
HLA-B8 = system: HLA-B8
Text: as §5

HLA-A29 = system: HLA-A29
HLA-B15 = system: HLA-B15
Text: as §5

Sequence of HLA-B7 (P61769 21-119): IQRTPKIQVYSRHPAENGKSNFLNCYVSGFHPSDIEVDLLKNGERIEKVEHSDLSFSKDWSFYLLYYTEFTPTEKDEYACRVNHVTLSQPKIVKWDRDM
Sequence of HLA-B7 (P01889 25-299): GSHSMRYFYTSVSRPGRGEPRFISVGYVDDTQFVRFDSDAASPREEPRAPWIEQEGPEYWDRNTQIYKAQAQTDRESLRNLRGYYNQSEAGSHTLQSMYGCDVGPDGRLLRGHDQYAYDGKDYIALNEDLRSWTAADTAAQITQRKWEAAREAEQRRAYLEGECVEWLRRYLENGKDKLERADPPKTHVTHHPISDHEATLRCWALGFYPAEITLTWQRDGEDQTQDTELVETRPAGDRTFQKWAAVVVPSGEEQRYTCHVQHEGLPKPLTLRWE
Sequence of HLA-A3 (P04439 25-299): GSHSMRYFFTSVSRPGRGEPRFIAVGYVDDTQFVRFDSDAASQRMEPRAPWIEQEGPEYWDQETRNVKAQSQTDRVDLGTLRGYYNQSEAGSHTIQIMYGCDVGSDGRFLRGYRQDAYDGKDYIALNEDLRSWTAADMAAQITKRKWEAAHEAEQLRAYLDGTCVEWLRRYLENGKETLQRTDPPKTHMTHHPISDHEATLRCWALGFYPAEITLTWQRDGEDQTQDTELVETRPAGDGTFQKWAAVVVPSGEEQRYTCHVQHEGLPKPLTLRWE
Sequence of HLA-A3 (P61769 21-119, further chain): as the sequence (P61769 21-119) above

| Substance | REVEAL binding score, HLA-type B40 (HLA-B40) [%] | REVEAL binding score, HLA-type A2 (HLA-A2) [%] | REVEAL binding score, HLA-type B27 (HLA-B27) [%] | REVEAL binding score, HLA-type A3 (HLA-A3) [%] | REVEAL binding score, HLA-type A11 (HLA-A11) [%] | REVEAL binding score, HLA-type B7 (HLA-B7) [%] | REVEAL binding score, HLA-type A24 (HLA-A24) [%] | REVEAL binding score, HLA-type A1 (HLA-A1) [%] | REVEAL binding score, HLA-type B35 (HLA-B35) [%] | REVEAL binding score, HLA-type B14 (HLA-B14) [%] | REVEAL binding score, HLA-type B8 (HLA-B8) [%] | REVEAL binding score, HLA-type A29 (HLA-A29) [%] | REVEAL binding score, HLA-type B15 (HLA-B15) [%] |
| --- | --- | --- | --- | --- | --- | --- | --- | --- | --- | --- | --- | --- | --- |
| EL[Nle]GYIPLI | 43.10 | 97.87 | 0.67 | 4.54 | 3.21 | 0.68 | 0.92 | 18.29 | 2.55 | 0.14 | 17.05 | 20.93 | 8.91 |
| SRNLGKVID | 33.93 | 4.94 | 1.28 | 3.46 | 4.45 | 1.28 | 0.71 | 15.30 | 4.59 | 0.67 | 16.71 | 9.94 | 11.25 |
| QIVGGVYLL | 24.51 | 57.04 | 0.60 | 2.36 | 1.96 | 28.66 | 1.01 | 20.25 | 4.01 | 0.37 | 13.15 | 13.36 | 15.07 |
| VIRVIAHGL | 52.64 | 8.60 | 1.16 | 4.29 | 4.54 | 29.93 | 0.28 | 18.66 | 2.51 | 0.55 | 32.81 | 27.12 | 9.64 |
| VTGNIPGST | 130.97 | 8.44 | 1.58 | 2.52 | 4.85 | 2.24 | 1.60 | 16.18 | 4.00 | 0.75 | 13.12 | 15.05 | 5.15 |
| P[Cit]IGVRAT[Cit] | 49.29 | 7.36 | 0.94 | 2.52 | 1.72 | 1.91 | 0.21 | 18.83 | 2.45 | 0.19 | 9.47 | 14.14 | 12.64 |
| NIPGSTYSL | 37.01 | 5.71 | 2.29 | 3.98 | 3.20 | 4.80 | 8.50 | 8.41 | 4.71 | 0.46 | 7.66 | 31.99 | 4.46 |
| MGYIPLVGA | 40.78 | 10.71 | 0.83 | 3.40 | 4.79 | 0.80 | 0.35 | 11.34 | 0.85 | 0.73 | 14.88 | 19.54 | 8.85 |
| RVIAHGLRL | 24.08 | 18.68 | 15.57 | 13.32 | 17.75 | 102.96 | 0.79 | 11.60 | 1.43 | 0.42 | 12.60 | 23.22 | 106.77 |
| NLGRVIETL | 38.91 | 11.97 | 1.66 | 2.86 | 4.53 | 1.47 | 0.86 | 18.24 | 2.82 | 0.07 | 15.58 | 16.44 | 16.29 |
| LGKVIDTLT | 44.92 | 4.05 | 2.90 | 7.39 | 12.95 | 0.94 | 0.70 | 22.08 | 5.11 | 0.43 | 17.96 | 15.99 | 7.14 |

From patent US9550811B2, “Peptide scaffold design” (BIONOR IMMUNO AS, priority 2010, dated 2017)
